Assay results taken from US8674096B2, “Substituted imidazo[1,5-a]quinoxalin-4-ones as phosphodiesterase 9 inhibitors” (priority 2009, dated 2014).

Columns and labels:
PDE9 = biological target: T1, PDE9 (Homo sapiens, UniProt O76083); experiment: PDE9-inhibiting activity (SPA, 3H-cGMP degradation); type: biochemical
T1 construct: made in house
Experimental: The PDE9 used in the present experiment was expressed/purified by the method as in, for example, Guipponi et al., and Fisher et., al. (Fisher, D. A., et al., J. Biol. Chem., 273: pp. 15559-15564 (1998), Guipponi, M., et al., Hum. Genet., 103: pp. 386-392 (1998)).
The PDE9-inhibiting activity was measured by the following method. That is, to a buffer solution containing tris(hydroxymethyl)aminomethane-hydrochloric acid (40 mM, pH 8.0), magnesium chloride (5 mM), and 2-mercaptoethanol (4 mM) were added cGMP (1 μM) and ^3H-cGMP (0.33 μCi/ml) to give a substrate buffer solution. A test substance solution and an enzyme solution which had been adjusted to an optimal concentration were added thereto to perform a reaction at 30° C. The enzyme reaction was stopped by the addition of Scintillation Proximity Assay (SPA) Beads (GE Healthcare, UK) containing 5 mM 3-isobutyl-1-methylxanthine (IBMX). For the enzyme activity, the amount of 5′-GMP, which is a reaction degradation product bound to SPA beads, was measured with a TopCount microplate reader (Hewlett Packard, USA).
The inhibitory rate was calculated by taking the radioactivity of the control containing no test substance as (A), taking the radioactivity of the blank containing no enzyme as (B), and taking the radioactivity of the test substance as (C), and using the following equation. Inhibitory rate=100−{(C)−(B)/(A)−(B)}×100(%)

T1 sequence (O76083 whole entry): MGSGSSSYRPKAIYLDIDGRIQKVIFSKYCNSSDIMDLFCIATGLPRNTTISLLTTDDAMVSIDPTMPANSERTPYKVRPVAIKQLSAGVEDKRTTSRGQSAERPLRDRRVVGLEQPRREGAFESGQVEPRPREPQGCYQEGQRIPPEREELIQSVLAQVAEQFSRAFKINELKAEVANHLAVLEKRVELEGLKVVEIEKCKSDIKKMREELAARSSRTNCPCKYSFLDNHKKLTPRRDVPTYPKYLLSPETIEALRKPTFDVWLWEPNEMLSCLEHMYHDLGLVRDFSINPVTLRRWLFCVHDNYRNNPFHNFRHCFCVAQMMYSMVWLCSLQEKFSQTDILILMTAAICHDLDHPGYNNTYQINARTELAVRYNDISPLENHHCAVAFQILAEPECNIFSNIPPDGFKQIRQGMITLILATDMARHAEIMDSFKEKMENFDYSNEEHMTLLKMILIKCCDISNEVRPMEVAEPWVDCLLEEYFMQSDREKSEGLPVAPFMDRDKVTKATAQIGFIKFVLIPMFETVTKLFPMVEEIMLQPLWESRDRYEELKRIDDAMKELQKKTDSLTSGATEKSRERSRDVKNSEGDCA

- IC50 (PDE9): 22 nM
- melting point: 220 °C (dec.)
Structure (SMILES): Cc1cc2c(cc1C(=O)N1CCc3cc(F)ccc31)[nH]c(=O)c1nnc(C3CCC(F)(F)CC3)n12.Cl [Example 13, 1-(4,4-difluorocyclohexyl)-7-[(5-fluoro-2,3-dihydro-1H-indol-1-yl)carbonyl]-8-methyl[1,2,4]triazolo[4,3-a]quinoxalin-4(5H)-one hydrochloride]
